According to patent US20140134253A1, “DRY POWDER FOSFOMYCIN/TOBRAMYCIN FORMULATION FOR INHALATION” (Gilead Sciences, Inc., priority 2011, published 2014):

Key:
[1] = tested on: E. coli, Proteus spp., Salmonella spp., Shigella spp., and S. marcescens; details: cited from earlier work
[2] = pH of the active ingredients in solution; format: physicochemical
Source text: Although simple amino acids and peptides have been used as excipients in pulmonary delivery, they exist as zwitterions with the free amine being protonated by the carboxylic acid. Since fosfomycin disodium and tobramycin base are basic with pHs of approximately 9.7, and 11 in solution, respectively, a formulation combining fosfomycin disodium and tobramycin base would be expected to be outside of the pH range to be tolerable for administration by inhalation to the pulmonary system. However, with the addition of NAL, the pH range in the lung upon administration of the dry powder formulation of the present invention is between about 7 to about 8, and preferably, from about 7.1 to about 7.7. Without the addition of NAL, a dry powder formulation combining fosfomycin disodium and tobramycin in the same molar ratios would be expected to produce a pH in the lung of about 8.2 (when the pH of tobramycin is adjusted with 2.5 molar equivalent of sulfuric acid) and a pH of about 9.1 (without pH adjustment with sulfuric acid).

[3] = aerosol administration; cited from earlier work
[4] = cited from earlier work

In the case of C[C@@H]1O[C@@H]1P(=O)(O)O [Fosfomycin], the “fosfomycin concentration at which organisms are generally inhibited” value [1] is listed as at most 64 µg/mL.

In the case of C[C@@H]1O[C@@H]1P(=O)(O)O [fosfomycin disodium], the pH in solution [2] is reported as “approximately 9.7”.

For NC[C@H]1O[C@H](O[C@H]2[C@H](O)[C@@H](O[C@H]3O[C@H](CO)[C@@H](O)[C@H](N)[C@H]3O)[C@H](N)C[C@@H]2N)[C@H](N)C[C@@H]1O [tobramycin, Tobramycin], the sputum levels [3] is listed as at least 1000 µg/mL, the pH in solution [2] is listed as about 11 and the oral absorption ([4]; in vivo, po) is listed as “poorly absorbed orally”. The plasma half-life ([4]; parenteral administration, excreted by glomerular filtration) was 1 to 2 h.
